Experimental data reported in US20100298141A1, “SUBSTITUTED PYRIDINE N-OXIDE HERBICIDES” (E. I. DU PONT DE NEMOURS AND COMPANY, priority 2007, published 2010).

What was measured:
barnyardgrass [1] = experiment: Test A pre-/postemergence greenhouse test; format: in vivo, Echinochloa crus-galli; conditions: for Barnyardgrass plant response rating: 0 to 100 scale
Outline: (§1)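 Planting was into mixed loam soil and sand; preemergence treatment followed as a directed soil spray. Concurrently, emerged plants (one- to two-leaf, 2–10 cm) received postemergence applications of identically formulated compound (non-phytotoxic solvent, surfactant). After approximately ten days under greenhouse conditions, injury was judged by eye against untreated plants.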

crabgrass = experiment: Test A pre-/postemergence greenhouse test; format: in vivo, Digitaria sanguinalis; conditions: for Crabgrass, Large plant response rating: 0 to 100 scale
Outline: as §1

giant foxtail = experiment: Test A pre-/postemergence greenhouse test; format: in vivo, Setaria faberi; conditions: for Foxtail, Giant plant response rating: 0 to 100 scale
Outline: as §1

velvetleaf [2] = experiment: Test A pre-/postemergence greenhouse test; format: in vivo, Abutilon theophrasti; conditions: for Velvetleaf plant response rating: 0 to 100 scale
Outline: as §1

Surinam grass = experiment: Test C pre-/postemergence test; format: in vivo, Brachiaria decumbens
Source text: (§2) Seeds of plant species selected from blackgrass (Alopecurus myosuroides), downy brome (Bromus tectorum), green foxtail (Setaria viridis), Italian ryegrass (Lolium multiflorum), wheat (Triticum aestivum), wild oat (Avena fatua), catchweed bedstraw (Galium aparine), Russian thistle (Salsola kali), […] (Cynodon dactylon), Surinam grass (Brachiaria decumbens), cocklebur (Xanthium strumarium), corn (Zea mays), crabgrass (Digitaria sanguinalis), woolly cupgrass (Eriochloa villosa), giant foxtail (Setaria faberii), Goosegrass (Eleusin indica), johnsongrass (Sorghum halepense), kochia (Kochia scoparia), lambsquarters (Chenopodium album), morningglory (Ipomoea coccinea), eastern black nightshade (Solanum ptycanthum), yellow nutsedge (Cyperus esculentus), pigweed (Amaranthus retroflexus), common ragweed (Ambrosia elation), soybean (Glycine max), common (oilseed) sunflower (Helianthus annuus), and velvetleaf (Abutilon theophrasti) were planted and treated preemergence with test chemicals formulated in a non-phytotoxic solvent mixture which included a surfactant. At the same time, plants selected from these crop and weed species and also winter barley (Hordeum vulgare), canarygrass (Phalaris minor), and chickweed (Stellaria media) were treated with postemergence applications of some of the test chemicals formulated in the same manner. Plants ranged in height from 2 to 18 cm (1- to 4-leaf stage) for postemergence treatments. […] At time of treatment, test pots were flooded to 3 cm above the soil surface, treated by application of test compounds directly to the paddy water, and then maintained at that water depth for the duration of the test. […] A dash (-) response means no test result.

woolly cupgrass = experiment: Test C pre-/postemergence test; format: in vivo, Eriochloa villosa
Source text: as §2

lambsquarters = experiment: Test C pre-/postemergence test; format: in vivo, Chenopodium album
Source text: as §2

pigweed = experiment: Test C pre-/postemergence test; format: in vivo, Amaranthus retroflexus
Source text: as §2

common ragweed = experiment: Test C pre-/postemergence test; format: in vivo, Ambrosia elation
Source text: as §2

soybean = experiment: Test C pre-/postemergence test; format: in vivo, Glycine max
Source text: as §2

velvetleaf [3] = experiment: Test C pre-/postemergence test; format: in vivo, Abutilon theophrasti
Source text: as §2

duck salad = experiment: Test C flooded paddy test; format: in vivo, Heteranthera limosa; conditions: Flood
Outline: (§3)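 Test compounds are applied straight into paddy water held 3 cm above the soil surface, with that flood maintained for the whole test. After 13 to 15 days in the greenhouse, each species is scored visually relative to controls.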

barnyardgrass [4] = experiment: Test C flooded paddy test; format: in vivo, Echinochloa crus-galli; conditions: Flood
Outline: as §3

[5] = Postemergence, 125 g ai/ha, 0 is no effect, 100 is complete control
[6] = Postemergence, 500 g ai/ha, 0 is no effect, 100 is complete control
[7] = Preemergence, 125 g ai/ha, 0 no effect, 100 complete control
[8] = Preemergence, 500 g ai/ha, 0 to 100 scale where 0 is no effect and 100 is complete control
[9] = 62 g ai/ha, Preemergence, scale 0 to 100
[10] = 125 g ai/ha, preemergence, scale 0 (no effect) to 100 (complete control)
[11] = Preemergence, 31 g ai/ha, scale 0 to 100 (0 no effect, 100 complete control)
[12] = preemergence, 250 g ai/ha, scale 0 (no effect) to 100 (complete control)
[13] = 31 g ai/ha, scale 0 to 100 (0 no effect, 100 complete control)
[14] = 62 g ai/ha, scale 0 to 100, 0 no effect, 100 complete control, 13 to 15 days
[15] = 125 g ai/ha, scale 0 to 100, 0 no effect, 100 complete control, 13 to 15 days
[16] = 250 g ai/ha, scale 0 to 100, 0 no effect, 100 complete control, 13 to 15 days

Cn1nc(C(F)(F)F)c(C[S+]([O-])c2cc(Cl)cc[n+]2[O-])c1Cl (racemic) [Compound 39]
10: Soybean plant response rating (soybean; [10]) | Soybean plant response rating (soybean; [12])
85: Cupgrass, Woolly plant response rating (woolly cupgrass; [9]) | Cupgrass, Woolly plant response rating (woolly cupgrass; [10]) | Cupgrass, Woolly plant response rating (woolly cupgrass; [12])
75: Plant response rating, Lambsquarters (lambsquarters; [11])
90: Barnyardgrass plant response rating (barnyardgrass [1]; [6]) | Barnyardgrass plant response rating (barnyardgrass [1]; [7]) | Crabgrass, Large plant response rating (crabgrass; [7]) | Plant response rating, Crabgrass, Large (crabgrass; [8]) | Foxtail, Giant plant response rating (giant foxtail; [6]) | Surinam Grass plant response rating (Surinam grass; [10]) | Surinam Grass plant response rating (Surinam grass; [12]) | Ragweed plant response rating (common ragweed; [10]) | Ragweed plant response rating (common ragweed; [12]) | Plant response rating, Ducksalad (duck salad; [15])
40: Velvetleaf plant response rating (velvetleaf [2]; [5]) | Plant response rating, Cupgrass, Woolly (woolly cupgrass; [11])
70: Barnyardgrass plant response rating (barnyardgrass [1]; [5]) | Velvetleaf plant response rating (velvetleaf [2]; [7]) | Plant response rating, Ducksalad (duck salad; [13])
60: Velvetleaf plant response rating (velvetleaf [2]; [6]) | Plant response rating, Surinam Grass (Surinam grass; [11]) | Velvetleaf plant response rating (velvetleaf [3]; [10])
0: Ragweed plant response rating (common ragweed; [9]) | Soybean plant response rating (soybean; [9]) | Plant response rating, Soybean (soybean; [11]) | Plant response rating, Barnyardgrass (barnyardgrass [4]; [13]) | Plant response rating, Barnyardgrass (barnyardgrass [4]; [14])
80: Crabgrass, Large plant response rating (crabgrass; [5]) | Crabgrass, Large plant response rating (crabgrass; [6]) | Foxtail, Giant plant response rating (giant foxtail; [5]) | Surinam Grass plant response rating (Surinam grass; [9]) | Lambsquarters plant response rating (lambsquarters; [9]) | Plant response rating, Ducksalad (duck salad; [14])
100: Plant response rating, Barnyardgrass (barnyardgrass [1]; [8]) | Foxtail, Giant plant response rating (giant foxtail; [7]) | Plant response rating, Foxtail, Giant (giant foxtail; [8]) | Plant response rating, Velvetleaf (velvetleaf [2]; [8]) | Lambsquarters plant response rating (lambsquarters; [10]) | Lambsquarters plant response rating (lambsquarters; [12]) | Pigweed plant response rating (pigweed; [9]) | Pigweed plant response rating (pigweed; [10]) | Plant response rating, Pigweed (pigweed; [11]) | Pigweed plant response rating (pigweed; [12]) | Velvetleaf plant response rating (velvetleaf [3]; [12])
30: Plant response rating, Velvetleaf (velvetleaf [3]; [11]) | Plant response rating, Barnyardgrass (barnyardgrass [4]; [15])
95: Plant response rating, Ducksalad (duck salad; [16])
65: Plant response rating, Barnyardgrass (barnyardgrass [4]; [16])
45: Velvetleaf plant response rating (velvetleaf [3]; [9])
